This is an account of results in paper PMC12518634, “The noncanonical function of liver-type phosphofructokinase potentiates the efficacy of HDAC inhibitors in cancer” (Signal Transduction and Targeted Therapy, 2025).

Where two headings read alike, the source gives them in different places.

One assay concerns 1405R3. As to the kind of experiment: High-throughput drug screen, CellTiter-Glo viability, 72 h. Format: cell-based, human. More on the design: AUC: scale not given here. Particulars: for EC50: fitted dose-response curve, Min.Conc.tested 1, Max.Conc.tested 10000, CellTiter-Glo, read-out: EC50. The essentials: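 Responses are drug sensitivity scores (efficacy cutoff ≥10), fitted from CellTiter-Glo luminescence. Each drug was given at five concentrations (10 to 0.001 μM, tenfold steps) in duplicate for 72 h. Cells were plated at 3000/well 24 h before dosing.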
A general note: ATP-based viability assays read luminescence as a measure of living cells.

The test system of a further assay is 783C-6. The description is as above. More on the design: AUC: scale not given here. Particulars: for EC50: read-out: EC50. Format: cell-based, human. The method in brief:
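Cholangiocarcinoma cells were seeded at 3000/well in 384-well plates and dosed after 24 h. Drugs were tested at 10, 1, 0.1, 0.01 and 0.001 μM in duplicate for 72 h, with viability read by CellTiter-Glo luminescence.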

[1] abbreviates: 1405R3 DSRT analysis, area under the dose-response curve.
Where [2] appears, read: 1405R3 DSRT analysis, drug sensitivity score.
The mark [3] stands for this setting: 1405R3 DSRT analysis, lower asymptote of fitted dose-response curve.
The mark [4] stands for this setting: 783C-6 cells, DSS of DSRT analysis.
Where [5] appears, read: 783C-6 cells, area under the dose-response curve.
[6] abbreviates: 783C-6 cells, minimum of dose-response curve.
Where [7] appears, read: 1405R3 DSRT analysis, slope of fitted dose-response curve.
Where [8] appears, read: 783C-6 DSRT analysis, DSS calculated from the dose-response curve.
Where [9] appears, read: 783C-6 DSRT analysis, MIN of the fitted dose-response curve.
[10] abbreviates: 783C-6 DSRT analysis, area under the dose-response curve.
Setting [11] is: 783C-6 DSRT analysis, slope of the fitted dose-response curve.
[12] abbreviates: 783C-6 DSRT analysis, CellTiter-Glo viability, 72 h, fitted dose-response curve, Min.Conc.tested 1, Max.Conc.tested 10000.
[13] abbreviates: 783C-6 cells, slope of fitted dose-response curve.
Where [14] appears, read: Homo sapiens, 1405R3 DSRT analysis, 72 h.

Take `N[C@H]1CC[C@H](N[C@@H]2C[C@H]2c2ccccc2)CC1` [ORY-1001]: the AUC in the assay with 1405R3 (setting [1]) was 0.1; with 783C-6 (setting [5]) it was 14.3. For the same compound, the DSS in the assay on 1405R3 (setting [2]) and in the assay with 783C-6 (setting [4]) was 0 throughout. For the same compound, the MIN in the assay on 1405R3 (setting [3]) was determined as 100; in the assay on 783C-6 (setting [6]), 92.7.
In the case of `O=C(O)CCCc1ccccc1` [Sodium Phenylbutyrate], the AUC came to 9.3 in the assay with 1405R3 (setting [1]) and 15 with 783C-6 (setting [5]). For the same compound, the DSS in the assay on 1405R3 (setting [2]) and in the assay on 783C-6 (setting [4]) was 0 throughout. Moreover, the MIN in the assay on 1405R3 (setting [3]) was 90.9; in the assay with 783C-6 (setting [6]), 91.2.
As a reminder, the EC50 is the concentration at which the effect is half-maximal. Consider `Cc1sc2c(c1C)C(c1ccc(Cl)cc1)=N[C@@H](CC(N)=O)c1nnc(C)n1-2` [CPI-203], for which the DSS in the assay on 1405R3 (1405R3 DSRT analysis, DSS) is 13; in the assay with 783C-6 (setting [8]), 0. The AUC is listed as 111.9 with 1405R3 (setting [1]) and 3.2 in the assay on 783C-6 (setting [10]). Also, in the assay with 1405R3 (1405R3 DSRT analysis, 72 h), the EC50 came to 210 nM. The figures for the MIN in the assay with 1405R3 (setting [3]) and with 783C-6 (setting [9]) were 33.4 and 93.6, respectively. Besides, the values for the SLOPE in the assay with 1405R3 (setting [7]) and in the assay on 783C-6 (setting [11]) were -1.2 and -0.7, respectively.
As to `Cc1cc(Cl)ccc1OCCCC(=O)NO` [Droxinostat], the DSS with 1405R3 (1405R3 DSRT analysis, DSS) was 0; with 783C-6 (setting [8]), 0. The AUC stood at 1.2 in the assay on 1405R3 (setting [1]) and 2.9 with 783C-6 (setting [10]). In addition, the values for the MIN with 1405R3 (setting [3]) and in the assay with 783C-6 (setting [9]) were 97.1 and 90.5, respectively. Further, the results for the SLOPE in the assay on 1405R3 (setting [7]) and in the assay on 783C-6 (setting [11]) were -0.7 and -1, respectively.
Turning to AZD4547, the DSS in the assay with 1405R3 (1405R3 DSRT analysis, DSS) is on record as 0; with 783C-6 (setting [8]), 3.2. Further, the AUC with 1405R3 (setting [1]) worked out at 4.8; in the assay with 783C-6 (setting [10]) it was 29.6. Further, the MIN worked out at 88.1 in the assay with 1405R3 (setting [3]) and 54.8 in the assay with 783C-6 (setting [9]). Besides, in the assay on 783C-6 (setting [12]), the EC50 stood at 2230 nM.
In the case of `Cc1csc(-c2nnc(Nc3ccc(Oc4ncccc4-c4ccnc(N)n4)cc3)c3ccccc23)c1` [AMG-900], the DSS in the assay with 1405R3 (1405R3 DSRT analysis, DSS) was 0.2; in the assay with 783C-6 (setting [8]) it was 4.1. Further, the AUC with 1405R3 (setting [1]) is 29; in the assay with 783C-6 (setting [10]) it was 52.5. In addition, the MIN in the assay with 1405R3 (setting [3]) is given as 82.3; in the assay on 783C-6 (setting [9]), 63.4. In the assay with 783C-6 (Homo sapiens, 72 h), the concentration giving a half-maximal response (EC50) turned out to be 483 nM.
`CCCOc1ccc(/C=C2\SC(=O)NC2=O)cc1` [SMI-16a]: the AUC came to 0.1 with 1405R3 (setting [1]) and 5.7 with 783C-6 (setting [5]). Further, the DSS in the assay on 1405R3 (setting [2]) and in the assay with 783C-6 (setting [4]) was 0 throughout. Besides, the MIN stood at 100 in the assay on 1405R3 (setting [3]) and 91.3 in the assay on 783C-6 (setting [6]). The SLOPE is on record as -0.1 with 1405R3 (setting [7]) and -0.5 in the assay with 783C-6 (setting [13]).
For `O=C(CCCCCCNC(=O)c1cnc(N(c2ccccc2)c2ccccc2Cl)nc1)NO` [Citarinostat], the DSS was 3.5 in the assay on 1405R3 (1405R3 DSRT analysis, DSS) and 3.4 in the assay on 783C-6 (setting [8]). The figures for the AUC in the assay with 1405R3 (setting [1]) and with 783C-6 (setting [10]) were 32.3 and 31.7, respectively. The MIN in the assay on 1405R3 (setting [3]) is on record as 46.8; in the assay on 783C-6 (setting [9]), 50.9. The EC50 worked out at 2500 nM in the assay on 1405R3 (setting [14]) and 2280 nM with 783C-6 (Homo sapiens, 72 h).
On to `O=C(NO)c1cnc(NC2(c3ccccc3)CC2)nc1` [ACY-738], for which the DSS with 1405R3 (1405R3 DSRT analysis, DSS) is 5; with 783C-6 (setting [8]) it was 5.2. Further, the AUC with 1405R3 (setting [1]) was 44.6; with 783C-6 (setting [10]), 46.6. Further, the figures for the MIN with 1405R3 (setting [3]) and with 783C-6 (setting [9]) were 25.2 and 24.1, respectively. Besides, the EC50 turned out to be 2570 nM in the assay with 1405R3 (setting [14]) and 2460 nM in the assay with 783C-6 (Homo sapiens, 72 h).
Regarding `N#Cc1c(-c2ccccc2)cc(-c2cc(Br)ccc2O)[nH]c1=O` [TCS PIM-1 1], the AUC in the assay on 1405R3 (setting [1]) is on record as 2.3; with 783C-6 (setting [5]), 5.4. Also, the DSS with 1405R3 (setting [2]) and in the assay with 783C-6 (setting [4]) was 0 in each case. For the same compound, the MIN was determined as 96.8 in the assay on 1405R3 (setting [3]) and 92.2 with 783C-6 (setting [6]). The SLOPE in the assay with 1405R3 (setting [7]) and with 783C-6 (setting [13]) was -0.4 each time.
With `CCN1CCN(C(=O)Cc2ccc(Nc3ncc(F)c(Nc4ccc(C(=O)Nc5ccccc5Cl)cc4)n3)cc2)CC1` [Aurora A Inhibitor I], the DSS in the assay on 1405R3 (1405R3 DSRT analysis, DSS) is 3; in the assay on 783C-6 (setting [8]) it was 4.6. Further, the AUC is recorded as 28 in the assay with 1405R3 (setting [1]) and 41.2 with 783C-6 (setting [10]). Further, the EC50 in the assay on 1405R3 (1405R3 DSRT analysis, 72 h) was 2810 nM; in the assay on 783C-6 (setting [12]), 2510 nM. In addition, the MIN in the assay with 1405R3 (setting [3]) came out at 50; in the assay with 783C-6 (setting [9]), 32. Also, the SLOPE in the assay with 1405R3 (setting [7]) and with 783C-6 (setting [11]) was -2.5 in each case.
As to `CN(C)Cc1c(C(=O)NCCOc2ccc(C(=O)NO)cc2)oc2ccccc12` [Abexinostat], the DSS in the assay on 1405R3 (1405R3 DSRT analysis, DSS) was 6; in the assay on 783C-6 (setting [8]), 5.3. For the same compound, the AUC in the assay on 1405R3 (setting [1]) turned out to be 53; in the assay with 783C-6 (setting [10]), 48.2. The MIN with 1405R3 (setting [3]) was 14.8; with 783C-6 (setting [9]) it was 6.1. In addition, the half-maximal effective concentration (EC50) came out at 2420 nM with 1405R3 (setting [14]) and 3130 nM with 783C-6 (Homo sapiens, 72 h).
For the compound `CCCCCCCCCCCCCCCCNNC(=O)c1cccs1` [SIS17], the AUC in the assay with 1405R3 (setting [1]) is reported as 24.4; in the assay on 783C-6 (setting [5]), 4.7. Moreover, the DSS in the assay with 1405R3 (setting [2]) and with 783C-6 (setting [4]) was 0 in each case. Also, the results for the MIN with 1405R3 (setting [3]) and in the assay on 783C-6 (setting [6]) were 84.3 and 84.4, respectively. Besides, the results for the SLOPE with 1405R3 (setting [7]) and in the assay with 783C-6 (setting [13]) were -0.1 and -1, respectively.
As to `CNCCN(C)Cc1cn[nH]c1-c1ccc(OC2CC(OCCC3CCOCC3)C2)cc1.Cl` (stereo not drawn) [EPZ020411 2HCl], the DSS in the assay with 1405R3 (1405R3 DSRT analysis, DSS) is given as 0; with 783C-6 (setting [8]) it was 0. For the same compound, the AUC with 1405R3 (setting [1]) worked out at 0.3; in the assay on 783C-6 (setting [10]), 1.7. For the same compound, the MIN in the assay with 1405R3 (setting [3]) turned out to be 97.2; in the assay on 783C-6 (setting [9]), 96.5. Moreover, the results for the SLOPE in the assay with 1405R3 (setting [7]) and in the assay on 783C-6 (setting [11]) were -2.5 and -0.6, respectively.
`CC(C)Oc1ccc(-c2c[nH]cc2CN(C)CCN)cc1` [MS023]: the AUC is listed as 7.3 in the assay with 1405R3 (setting [1]) and 57.8 with 783C-6 (setting [5]). In addition, the DSS in the assay on 1405R3 (setting [2]) is 0; in the assay on 783C-6 (setting [4]), 3.9. Also, the MIN was 75.6 with 1405R3 (setting [3]) and 80.8 in the assay on 783C-6 (setting [6]).
As to `c1ccc([C@@H]2C[C@H]2NC2CCNCC2)cc1` [GSK-LSD1 2HCl], in the assay with 1405R3, the D1 is 104.9, the D2 stood at 104.6, the D3 is recorded as 91.3 and the D4 was 100.7. In the assay on 1405R3, the D5 is 129.6, the MAX was determined as 100, the MIN worked out at 91.3 and the SLOPE is -0.4. In addition, the DSS with 1405R3 (1405R3 DSRT analysis, DSS) was 0. For the same compound, in the assay on 1405R3 (72 h), the AUC was found to be 5.8. Besides, in the assay with 783C-6, the D1 worked out at 98.8, the D2 was found to be 106.9, the D3 amounted to 94.2 and the D4 amounted to 93.9. In the assay on 783C-6, the D5 came to 108.3, the MAX came to 100, the MIN amounted to 93.9 and the SLOPE is on record as -0.3. For the same compound, in the assay with 783C-6 (72 h), the AUC worked out at 6 and the DSS turned out to be 0.
In the case of `Nc1ncn([C@H]2C[C@H](O)[C@@H](CO)O2)c(=O)n1` [Decitabine], the DSS in the assay on 1405R3 (1405R3 DSRT analysis, DSS) is reported as 0; in the assay on 783C-6 (setting [8]) it was 0.5. Further, the results for the AUC with 1405R3 (setting [1]) and in the assay on 783C-6 (setting [10]) were 0.1 and 19.6, respectively. The MIN was 100 in the assay with 1405R3 (setting [3]) and 88.5 in the assay with 783C-6 (setting [9]).
For `C=CC(=O)Nc1cc2c(Nc3ccc(F)c(Cl)c3)ncnc2cc1OCCCN1CCOCC1` [Canertinib], the DSS is on record as 0 in the assay on 1405R3 (1405R3 DSRT analysis, DSS) and 0 in the assay on 783C-6 (setting [8]). Besides, the AUC in the assay with 1405R3 (setting [1]) came to 33.5; in the assay with 783C-6 (setting [10]), 7.4. The MIN with 1405R3 (setting [3]) is reported as 78.5; with 783C-6 (setting [9]), 75.6.
